Structures can show the parent of a compound that is named as a salt.
Columns and labels:
[1] = target: T1, indoleamine 2, 3-dioxygenase (IDO1) (Homo sapiens, UniProt P14902); assay: HeLa IDOi assay (kynurenine detection via mass spectrometry); assay type: cell-based; design: human epithelial HeLa cells (CCL-2; host or cells: HeLa cells stimulated with human IFN-γ; conditions: human epithelial HeLa cells stimulated with IFN-γ; kynurenine by mass spectrometry; 2 days incubation
Protocol: (§1) Compounds of the present invention were tested via high-throughput cellular assays utilizing detection of kynurenine via mass spectrometry and cytotoxicity as end-points. For the mass spectrometry and cytotoxicity assays, human epithelial HeLa cells (CCL-2; ATCC®, Manassas, Va.) were stimulated with human interferon-γ (IFN-γ) (Sigma-Aldrich Corporation, St. Louis, Mo.) to induce the expression of indoleamine 2, 3-dioxygenase (IDO1). Compounds with IDO1 inhibitory properties decreased the amount of kynurenine produced by the cells via the tryptophan catabolic pathway. Cellular toxicity due to the effect of compound treatment was measured using CellTiter-Glo® reagent (CTG) (Promega Corporation, Madison, Wis.), which is based on luminescent detection of ATP, an indicator of metabolically active cells.
(§2) In preparation for the assays, test compounds were serially diluted 3-fold in DMSO from a typical top concentration of 5 mM and plated at 0.5 μL in 384-well, polystyrene, clear bottom, tissue culture treated plates with lids (Greiner Bio-One, Kremsmünster, Austria) to generate 11-point dose response curves. Low control wells (0% kynurenine or 100% cytotoxicity) contained either 0.5 μL of DMSO in the presence of unstimulated (−IFN-γ) HeLa cells for the mass spectrometry assay or 0.5 μL of DMSO in the absence of cells for the cytotoxicity assay, and high control wells (100% kynurenine or 0% cytotoxicity) contained 0.5 μL of DMSO in the presence of stimulated (+IFN-γ) HeLa cells for both the mass spectrometry and cytotoxicity assays.
Frozen stocks of HeLa cells were washed and recovered in DMEM high glucose medium with HEPES (Thermo Fisher Scientific, Inc., Waltham, Mass.) supplemented with 10% v/v certified fetal bovine serum (FBS) (Thermo Fisher Scientific, Inc., Waltham, Mass.), and 1× penicillin-streptomycin antibiotic solution (Thermo Fisher Scientific, Inc., Waltham, Mass.). The cells were diluted to 100,000 cells/mL in the supplemented DMEM medium. 50 μL of either the cell suspension, for the mass spectrometry assay, or medium alone, for the cytotoxicity assay, were added to the low control wells, on the previously prepared 384-well compound plates, resulting in 5,000 cells/well or 0 cells/well respectively. IFN-γ was added to the remaining cell suspension at a final concentration of 10 nM, and 50 μL of the stimulated cells were added to all remaining wells on the 384-well compound plates. The plates, with lids, were then placed in a 37° C., 5% CO2 humidified incubator for 2 days.
(§3) Following incubation, the 384-well plates were removed from the incubator and allowed to equilibrate to room temperature for 30 minutes. For the cytotoxicity assay, CellTiter-Glo® was prepared according to the manufacturer's instructions, and 10 μL were added to each plate well. After a twenty minute incubation at room temperature, luminescence was read on an EnVision® Multilabel Reader (PerkinElmer Inc., Waltham, Mass.). For the mass spectrometry assay, 10 μL of supernatant from each well of the compound-treated plates were added to 40 μL of acetonitrile, containing 10 μM of an internal standard for normalization, in 384-well, polypropylene, V-bottom plates (Greiner Bio-One, Kremsmünster, Austria) to extract the organic analytes. Following centrifugation at 2000 rpm for 10 minutes, 10 μL from each well of the acetonitrile extraction plates were added to 90 μL of sterile, distilled H2O in 384-well, polypropylene, V-bottom plates for analysis of kynurenine and the internal standard on the RapidFire 300 (Agilent Technologies, Santa Clara, Calif.) and 4000 QTRAP MS (SCIEX, Framingham, Mass.). MS data were integrated using Agilent Technologies' RapidFire Integrator software, and data were normalized for analysis as a ratio of kynurenine to the internal standard. […]

[2] = target: T1, indoleamine 2, 3-dioxygenase (IDO1); assay: PBMC IDOi assay (kynurenine detection via mass spectrometry); assay type: cell-based; conditions: human PBMC stimulated with IFN-γ and LPS; kynurenine by mass spectrometry; 2 days incubation
Protocol: as §1, with “peripheral blood mononuclear” for “epithelial HeLa”, “(PBMC) (PB003F; AlICells®, Alameda, Calif.)” for “(CCL-2; ATCC®, Manassas, Va.)”, “Mo.) and lipopolysaccharide from Salmonella minnesota (LPS) (Invivogen, San Diego, Calif.)” for “Mo.)”
as §2, with “(−IFN-γ/−LPS) PBMCs” for “(−IFN-γ) HeLa cells”, “(+IFN-γ/+LPS) PBMCs” for “(+IFN-γ) HeLa cells”
Frozen stocks of PBMCs were washed and recovered in RPMI 1640 medium (Thermo Fisher Scientific, Inc., Waltham, Mass.) supplemented with 10% v/v heat-inactivated fetal bovine serum (FBS) (Thermo Fisher Scientific, Inc., Waltham, Mass.), and 1× penicillin-streptomycin antibiotic solution (Thermo Fisher Scientific, Inc., Waltham, Mass.). The cells were diluted to 1,000,000 cells/mL in the supplemented RPMI 1640 medium. 50 μL of either the cell suspension, for the mass spectrometry assay, or medium alone, for the cytotoxicity assay, were added to the low control wells, on the previously prepared 384-well compound plates, resulting in 50,000 cells/well or 0 cells/well respectively. IFN-γ and LPS were added to the remaining cell suspension at final concentrations of 100 ng/ml and 50 ng/ml respectively, and 50 μL of the stimulated cells were added to all remaining wells on the 384-well compound plates. The plates, with lids, were then placed in a 37° C., 5% CO2 humidified incubator for 2 days.
as §3, with “and 40” for “and 10”

T1 sequence (P14902 whole entry): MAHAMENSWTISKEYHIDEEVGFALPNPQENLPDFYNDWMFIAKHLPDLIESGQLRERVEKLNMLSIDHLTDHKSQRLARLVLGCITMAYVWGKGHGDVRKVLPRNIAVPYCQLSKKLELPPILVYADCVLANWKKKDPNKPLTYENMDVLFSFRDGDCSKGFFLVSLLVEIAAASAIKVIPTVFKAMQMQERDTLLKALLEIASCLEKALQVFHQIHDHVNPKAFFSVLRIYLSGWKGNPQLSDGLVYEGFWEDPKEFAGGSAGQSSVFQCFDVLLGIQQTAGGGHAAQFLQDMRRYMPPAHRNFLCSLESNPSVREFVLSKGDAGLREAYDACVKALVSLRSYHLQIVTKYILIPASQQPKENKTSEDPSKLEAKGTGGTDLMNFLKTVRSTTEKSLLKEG

SMILES | EC50 [1] [nM] | EC50 [2] [nM]
CC(C)CN(c1ccc([C@H]2C[C@H]2C(=O)O)cc1Nc1nc2ccccc2o1)C1CCCCC1 (relative stereo) [Example 1, cis-2-(3-(Benzo[d]oxazol-2-ylamino)-4-(cyclohexyl(isobutyl)amino)phenyl)cyclopropanecarboxylic acid] | 100 | –
CC(C)CN(c1ccc([C@H]2C[C@H]2C(=O)O)cc1Nc1nc2ccccc2s1)C1CCCCC1 (relative stereo) [Example 3, cis-2-(3-(Benzo[d]thiazol-2-ylamino)-4-(cyclohexyl(isobutyl)amino)phenyl)cyclopropanecarboxylic acid] | 15.8 | –
CC(C)CN(c1ccc([C@H]2C[C@H]2C(=O)O)cc1Nc1nc(Cl)ns1)C1CCCCC1 (relative stereo) [Example 4, cis-2-(3-((3-Chloro-1,2,4-thiadiazol-5-yl)amino)-4-(cyclohexyl(isobutyl)amino)phenyl)cyclopropanecarboxylic acid] | 10 | 1.26
CC(C)CN(c1ccc([C@H]2C[C@H]2C(=O)O)cc1Nc1nc(-c2ccccc2)co1)C1CCCCC1 (relative stereo) [Example 5, cis-2-(4-(Cyclohexyl(isobutyl)amino)-3-((4-phenyloxazol-2-yl)amino)phenyl)cyclopropanecarboxylic acid] | 398 | –
CC(C)CN(c1ccc([C@H]2C[C@H]2C(=O)O)cc1Nc1nc(C(F)(F)F)ns1)C1CCCCC1 (relative stereo) [Example 6, cis-2-(4-(Cyclohexyl(isobutyl)amino)-3-((3-(trifluoromethyl)-1,2,4-thiadiazol-5-yl)amino)phenyl)cyclopropanecarboxylic acid, 2,2,2-trifluoroacetic acid] | 10 | 1.26
CC(C)CN(c1ccc(C2CC2C(=O)O)cc1Nc1nc2ccccc2[nH]1)C1CCCCC1 (stereo not drawn) [Example 2, cis-2-(3-((1H-Benzo[d]imidazol-2-yl)amino)-4-(cyclohexyl(isobutyl)amino)phenyl)cyclopropanecarboxylic acid] | 5.01 | –
CC(C)CN(c1ccc(-c2ccccc2C(=O)O)cc1Nc1nc2ccccc2o1)C1CCCCC1 [Example 7, 3′-(Benzo[d]oxazol-2-ylamino)-4′-(cyclohexyl(isobutyl)amino)-[1,1′-biphenyl]-2-carboxylic acid] | 79.4 | 39.8
CC(C)CN(c1ccc(-c2ccccc2C(=O)O)cc1Nc1nc2ccccc2[nH]1)C1CCCCC1 [Example 8, 3′-((1H-Benzo[d]imidazol-2-yl)amino)-4′-(cyclohexyl(isobutyl)amino)-[1,1′-biphenyl]-2-carboxylic acid] | 7.94 | –
CC(C)CN(c1ccc(-c2ccccc2C(=O)O)cc1Nc1nc(Cl)ns1)C1CCCCC1 [Example 9, 3′-((3-Chloro-1,2,4-thiadiazol-5-yl)amino)-4′-(cyclohexyl(isobutyl)amino)-[1,1′-biphenyl]-2-carboxylic acid] | 10 | 2.51
CC(C)CN(c1ccc(-c2ccccc2-c2nnn[nH]2)cc1Nc1nc(Cl)ns1)C1CCCCC1 [Example 10, N^3-(3-Chloro-1,2,4-thiadiazol-5-yl)-N^4-cyclohexyl-N^4-isobutyl-2′-(1H-tetrazol-5-yl)-[1,1′-biphenyl]-3,4-diamine] | 12.6 | –
CC(C)CN(c1ccc(-c2ccccc2-c2nnn[nH]2)cc1Nc1nc2ccccc2o1)C1CCCCC1 [Example 11, N^3-(Benzo[d]oxazol-2-yl)-N^4-cyclohexyl-N^4-isobutyl-2′-(1H-tetrazol-5-yl)-[1,1′-biphenyl]-3,4-diamine] | 25.1 | 15.8
Cc1cc(Nc2cc(-c3ccccc3-c3nn[nH]n3)ccc2N(CC(C)C)CC(C)C)no1 [Example 12, N^4,N^4-diisobutyl-N^3-(5-methylisoxazol-3-yl)-2′-(2H-tetrazol-5-yl)-[1,1′-biphenyl]-3,4-diamine] | 158 | 39.8
C/C=C/Cc1cc(-c2ccccc2-c2nnn[nH]2)cc(Nc2nc3ccccc3o2)c1OCCC [Example 13, (E)-N-(5-(But-2-en-1-yl)-4-propoxy-2′-(1H-tetrazol-5-yl)-[1,1′-biphenyl]-3-yl)benzo[d]oxazol-2-amine, Trifluoroacetic acid Salt] | 3.98 | 7.94
CCCCc1cc(-c2ccccc2-c2nnn[nH]2)cc(Nc2nc3ccccc3o2)c1OCCC [Example 14, N-(5-Butyl-4-propoxy-2′-(1H-tetrazol-5-yl)-[1,1′-biphenyl]-3-yl)benzo[d]oxazol-2-amine] | 5.01 | 7.94
C/C=C/Cc1cc(-c2ccccc2-c2nnn[nH]2)cc(Nc2nc(Cl)ns2)c1OCCC [Example 15, (E)-N-(5-(But-2-en-1-yl)-4-propoxy-2′-(1H-tetrazol-5-yl)-[1,1′-biphenyl]-3-yl)-3-chloro-1,2,4-thiadiazol-5-amine, Trifluoroacetic acid Salt] | 126 | –

From patent publication US10358427B2, “Modulators of indoleamine 2,3-dioxygenase” (GLAXOSMITHKLINE INTELLECTUAL PROPERTY DEVELOPMENT LIMITED, priority 2015, dated 2019)
